Assay results reported in patent US10730826B2, “Ketone inhibitors of lysine gingipain” (CORTEXYME, INC., priority 2016, dated 2020).
Read-outs that look alike come from different tables or passages of the source.

Tests used:
cathepsin F = cathepsin F (Homo sapiens (Human), UniProt Q9UBX1); assay: Cathepsin F inhibition assay; type: biochemical; details: Table 4; read-out: IC50 (nM) CatF
Protocol: (§1) The capacities of compounds of the present invention to inhibit the activity of cathepsins B, H, K, L, and S were measured in similar assays. Boc-Leu-Arg-Arg-AMC (20 μM) in sodium acetate buffer (50 mM, pH 5.5) containing DTT (1 mM) and EDTA (2 mM) was used for the Cathepsin B assay. L-Arg-AMC (20 μM) in sodium acetate buffer (50 mM, pH 5.5) containing DTT (1 mM) and EDTA (2 mM) was used for the Cathepsin H assay. Z-Phe-Arg-AMC (10 μM) in HEPES buffer (50 mM, pH 7.4) containing DTT (2.5 mM) and EDTA (1 mM) was used for the Cathepsin K assay. Z-Phe-Arg-AMC (20 μM) in sodium acetate buffer (50 mM, pH 5.5) containing DTT (1 mM) and EDTA (2 mM) was used for the Cathepsin L assay. Z-Leu-Arg-AMC (10 μM) in sodium acetate buffer (25 mM, pH 4.5) containing DTT (2.5 mM) and NaCl (50 mM) was used for the Cathepsin S assay. The capacities of the compounds to inhibit the activity of cathepsins F, V, and Z were also measured.
(§2) Further assays to measure the inhibitory activity of compounds of the present invention against Kgp and cathepsins B, H, K, L, and S were conducted as described in Example 66. The capacities of the compounds to inhibit the activity of cathepsins F, V, and Z were also measured.

cathepsin Z = cathepsin Z (Homo sapiens (Human), UniProt Q9UBR2); assay: Cathepsin Z inhibition assay; type: biochemical; details: Table 4; read-out: IC50 (nM) CatZ
Protocol: as §1, §2

cathepsin V = cathepsin V (Homo sapiens (Human), UniProt O60911); assay: Cathepsin V inhibition assay; type: biochemical; details: Table 4; read-out: IC50 (nM) CatV
Protocol: as §1, §2

Cathepsin S = Cathepsin S (Homo sapiens (Human), UniProt P25774); assay: Cathepsin S inhibition assay; type: biochemical; details: read-out: IC50 (nM) CatS
Protocol: as §1, §2

Cathepsin L = Cathepsin L (Homo sapiens (Human), UniProt P07711); assay: Cathepsin L inhibition assay; type: biochemical; details: read-out: IC50 (nM) CatL
Protocol: as §1, §2

Cathepsin H = Cathepsin H (Homo sapiens (Human), UniProt P09668); assay: Cathepsin H inhibition assay; type: biochemical; details: read-out: IC50 (nM) CatH
Protocol: as §1, §2

Cathepsin B = Cathepsin B (Homo sapiens (Human), UniProt P07858); assay: Cathepsin B inhibition assay; type: biochemical; details: read-out: IC50 (nM) CatB
Protocol: as §1, §2

Cathepsin K = Cathepsin K (Homo sapiens (Human), UniProt P43235); assay: Cathepsin K inhibition assay; type: biochemical; details: read-out: IC50 (nM) CatK
Protocol: as §1, §2

Kgp [1] = target: T1, Kgp (Porphyromonas gingivalis (strain ATCC 33277 / DSM 20709 / CIP 103683 / JCM 12257 / NCTC 11834 / 2561), UniProt B2RLK2); assay: Buccal cell staining with activity probe; type: cell-based, human; details: 1 μM probe, 1 hr, 37° C., FIG. 7
Protocol: Cells were incubated for 1 hr at 37° C. and pelleted. Cells were resuspended in 20 μL of PBS and placed on poly-L-lysine coated slides, washed, and dried. Slides were mounted with antifade mounting media containing DAPI and visualized under a fluorescence microscope.

Kgp [2] = target: T2, Kgp (Porphyromonas gingivalis (Bacteroides gingivalis), UniProt Q51817); assay: Activity probe labelling of Kgp in P. gingivalis-infected Jurkat cells (SDS-PAGE); type: cell-based
From the text: The identity of this labeled protein in P. gingivalis-infected cells was confirmed to be Kgp by Western blot.

[3] = target: Kgp in P. gingivalis W83 bacteria (Porphyromonas gingivalis (Bacteroides gingivalis), UniProt Q51817); assay: Bacterial smear staining with gingipain activity probes; type: cell-based; details: 1 μM probe, 1 hr, 37° C.; no signal in Kgp knockout
Protocol: Bacteria were then pelleted and resuspended in 20 μl of PBS, which was dropped onto a poly-L-lysine coated slide and kept in a dark box at room temperature for about 2 hrs in order for the droplet to dry. The slide was then washed 3 times in PBS. Slides were mounted with a mounting media containing DAPI stain for bacterial DNA and visualized under fluorescence microscopy.

Kgp [4] = target: T1, Kgp; assay: Gingival tissue staining with activity probe; design: species or system human; details: patient with periodontal disease, FIG. 5B
Protocol: Slides of fresh frozen gingival tissue (5 micron thickness) were removed from a −80° C. freezer and thawed at RT for 10 min. […] Slides were then washed three times in PBS, 5 min each, then fixed in fresh 4% PFA for 15 min at RT, then washed again three times in PBS. Then slides were incubated with a 1× working Trueblack solution (Biotium) for 30 min at RT. Slides were then washed three times in PBS and mounted with anti-fade mounting media containing DAPI (FIG. 5B).

Kgp [5] = target: T2, Kgp; assay: Biotin activity probe pull-down of Kgp from P. gingivalis lysate; type: binding; details: streptavidin beads, Western blot with CAB102, FIG. 8
Protocol: P. gingivalis W83 was lysed with B-Per buffer for 15 min at 4° C. […] 5 mg of streptavidin-beads were incubated with all samples for 1 hr at room temperature on an inverting platform. The beads were collected after 1 hr and heated at 100° C. for 5 min with 0.1% SDS to disrupt biotin-streptavidin binding. The resulting supernatants were analyzed by SDS-PAGE and Western blotting for specific detection of Kgp with CAB102 (FIG. 8).

lysine gingipain (Kgp) = lysine gingipain (Kgp) (Porphyromonas gingivalis (Bacteroides gingivalis), UniProt P72194); assay: biochemical; type: biochemical; details: IC50 (nM) Kgp, Table 4
Protocol: The specific assay conditions were as follows. Buffer: pH=7.5, 100 mM Tris-HCl, 75 mM NaCl, 2.5 mM CaCl2), 10 mM cysteine, 1% DMSO after all additions. Protein: 0.1 nM Kgp, isolated from culture of Porphyromonas gingivalis, as described by Pike et al. (J. Biol. Chem. 1994, 269(1), 406), and Potempa and Nguyen (Current Protocols in Protein Science. 2007, 21.20.1-21.20.27). Fluorogenic substrate: 10 μM Z-His-Glu-Lys-MCA. Time=90 minutes. Temperature=37° C.
as §2

Kgp [6] = target: T2, Kgp; assay: Cy5 activity-based probe detection of Kgp in P. gingivalis lysate; type: binding
Protocol: It has a warhead that binds to the Kgp active site, a peptide-based core, and a Cy5 fluorophore for detection. Labeled target proteins can be visualized by biochemical separation of a sample with fractionation by 2-D gel electrophoresis and detection of fluorescent signals from Cy5 at the appropriate excitation and emission wavelength. Incubation of a fixed concentration of the probe following binding of Kgp to a test compound (e.g., a candidate Kgp inhibitor) results in binding of the activity probe to Kgp active sites not already bound by the test compound.
10^8 bacteria were collected and centrifuged at 5000 g for 10 min at 4° C., and the supernatant was discarded. The bacterial cell pellet was lysed with 1 mL of B-Per lysis buffer (Thermo Fischer) on ice for 10 min, then centrifuged for 10 min at 14000 g, 4° C. Supernatant-containing protein lysate was collected. Biological samples were lysed with B-Per lysis buffer for 10 min at 4° C.
Biological samples, P. gingivalis lysate or purified Kgp were incubated with quenchable Cy5 probe compound 71 (1 μM) for 1 h at 37° C. with shaking. Then, samples were denatured with NUPAGE LDS sample buffer (Thermo Fisher) containing 50 mM DTT at 95° C. for 10 min and subjected to SDS-PAGE electrophoresis using a Criterion 4-15% precast gel (Bio-Rad) and Tris/Glycine/SDS running buffer (Bio-Rad). The gel was run at 75V for 10 min and then 125V for 1.5 h. The gel was then removed from the plastic cassette and subjected to Cy5 visualization with a ChemiDoc imaging system (Bio-Rad).
Samples were labeled with quenchable Cy5 probe compound 71 (1 μM) for 1 h at 37° C. with shaking. For immunoprecipitation of Cy5 labeled Kgp, the samples were then incubated with 10 μg of rabbit polyclonal CAB102 antibody with rotation overnight at 4° C. Then, samples were incubated with prewashed Dynabead Protein G beads with rotation for 20 min at room temperature. The samples were washed 4 times with 200 μL of washing buffer, using a magnetic rack. […]

[7] = in vivo, po; cited from earlier work

NCCCC[C@H](NC(=O)C1CCCC1)C(=O)COc1c(F)c(F)cc(F)c1F (stereo in doubt) [Compound 73, N-[7-amino-2-oxo-1-(2,3,5,6-tetrafluorophenoxy)heptan-3-yl]cyclopentanecarboxamide, reference compound]
IC50 (cathepsin F): 500 nM
IC50 (cathepsin Z): > 10000 nM
IC50 (cathepsin V): 5720 nM
IC50 (Cathepsin S; Table 3): 9980 nM
IC50 (Cathepsin S; Table 4): > 10000 nM
IC50 (Cathepsin L; Table 3): 700 nM
IC50 (Cathepsin L; Table 4): 700 nM
IC50 (Cathepsin H; Table 3): 110 nM
IC50 (Cathepsin H; Table 4): 110 nM
IC50 (Cathepsin B; Table 3): 485 nM
IC50 (Cathepsin B; Table 4): 485 nM
IC50 (Cathepsin K; Table 3): 20 nM
IC50 (Cathepsin K; Table 4): 20 nM

CC1=CC(C)=[N+]2C1=Cc1ccc(CCC(=O)NCc3cn(-c4cccc(C(=O)NC(CCCCN)C(=O)COc5c(F)cccc5F)c4)nn3)n1[B-]2(F)F (stereo not drawn) [Compound 15a]
staining of buccal cells (Kgp [1]): pronounced, punctate staining
binding of probe to Kgp (Kgp [2]; purified Kgp and infected Jurkat cells, FIG. 6A): irreversibly binds to purified Kgp
fluorescence of W83 bacteria after exposure to probe [3]: fluorescent
fluorescence signal in gingival tissue section (Kgp [4]): yields a fluorescence signal

NCCCCC(NC(=O)c1cccc(-n2cc(CNC(=O)CCCC[C@@H]3SC[C@@H]4NC(=O)N[C@@H]43)nn2)c1)C(=O)COc1c(F)cccc1F (stereo partly drawn) [Compound 51a]
amount of P. gingivalis from which Kgp was pulled down and detected (Kgp [5]): at least 10^6 CFU

COC(C)(C)C(=O)NC(CCCCN)C(=O)COC(C(F)(F)F)C(F)(F)F (stereo not drawn) [Compound 69a]
IC50 (cathepsin F): > 10000 nM
IC50 (cathepsin Z): > 10000 nM
IC50 (Cathepsin S; Table 4): > 10000 nM
IC50 (Cathepsin L; Table 4): > 10000 nM
IC50 (Cathepsin H; Table 4): > 10000 nM
IC50 (Cathepsin B; Table 4): > 10000 nM
IC50 (lysine gingipain (Kgp)): 0.21 nM
IC50 (Cathepsin K; Table 4): > 10000 nM

C[N+]1=C(/C=C/C=C/C=C2\N(CCCCCC(=O)NCc3cn(-c4cccc(C(=O)N[C@@H](CCCCN)C(=O)COc5c(F)cccc5F)c4)nn3)c3ccc(S(=O)(=O)O)cc3C2(C)C)C(C)(C)c2cc(S(=O)(=O)O)ccc21 [Compound 70]
blocking of probe 15a binding to Kgp by preincubation (Kgp [2]; infected Jurkat cells, preincubation before probe 15a): blocked the binding of the probe 15a to Kgp

C[N+]1=C(/C=C/C=C/C=C2\N(CCCCCC(=O)NCc3cn(-c4cccc(C(=O)N[C@@H](CCCCN)C(=O)COc5c(F)cc(CNC(=O)C6CCN(S(=O)(=O)c7ccccc7-c7c8cc/c(=[N+]9\CCc%10cc(S(=O)(=O)O)ccc%109)cc-8oc8cc(N9CCc%10cc(S(=O)(=O)O)ccc%109)ccc78)CC6)cc5F)c4)nn3)c3ccc(S(=O)(=O)O)cc3C2(C)C)C(C)(C)c2cc(S(=O)(=O)O)ccc21 [Compound 71]
specificity of detection (Kgp [6]; W83 vs Kgp knockout strain): specific for Kgp
apparent limit of detection of Kgp (Kgp [6]; probe 1 μM): 500 CFU

CN(NC(=O)CC[C@H](NC(=O)OCc1ccccc1)C(=O)N[C@@H](CCCCN)C(=O)C(=O)NCc1ccccc1)c1ccccc1 [Kyt-36]
half-life [7]: increases the half-life
